Results as given in US8415476B2, “Indazole having analgesic activity” (Aziende Chimiche Riunite Angelini Francesco A.C.R.A.F. …, priority 2003, dated 2013).

How the values were obtained:
[1] = tested on: mechanical hyperalgesia induced by CFA in the rat; assay: Mechanical hyperalgesia induced by CFA in the rat; format: in vivo; conditions: male CD rats, dose 10^-5 mol/kg, test 23 hours after injection of CFA, vehicle 121 ± 4.1, normal animals 155±2.1 g
Description: 1. Mechanical Hyperalgesia Induced by CFA in the Rat
Male CD rats weighing 150-200 g on arrival were used. Using an analgesiometer, rats were selected having a response threshold to a mechanical nociceptive stimulus of from 150 to 180 g. By applying a gradual increase in pressure on the dorsal zone of the rat's left hind foot, the instrument makes it possible to record the nocifensive response, expressed in grams, corresponding to the moment when the animal retracts its foot [Randall L O and Semite J J. A method for the measurement of analgesic activity on inflamed tissue. Arch. Int. Pharmacodyn. Ther. 1957; 111: 409-419].
Hyperalgesia was induced by unilateral injection of 150 μl of Complete Freund's Adjuvant (CFA) in the plantar surface of the animal's left hind foot [Andrew D, Greenspan J D. Mechanical and heat sensitization of cutaneous nociceptors after peripheral inflammation in the rat. J Neurophysiol 1999; 82(5): 2649-2656; Hargreaves K, Dubner R, Brown R, Flores C, Joris J. A new and sensitive method for measuring thermal nociception in cutaneous hyperalgesia. Pain 1988; 32: 77-88].
The compounds under examination were tested (dose 10^−5 mol/kg) by carrying out the test 23 hours after injection of CFA.
At 1 h following the treatment, the pain threshold measured in control animals was compared with that measured in animals treated with the product under examination. The control animals were treated with the same vehicle (water) used for administering the products under examination.

[2] = tested on: mechanical hyperalgesia in rats with diabetes induced by streptozotocin; assay: Mechanical hyperalgesia in rats with diabetes induced by streptozotocin; format: in vivo, rat; conditions: male CD rats, streptozotocin 80 mg/kg i.p. diabetic neuropathy, dose 10^-5 mol/kg, vehicle 112 ± 4.0, normal animals 240±8.7 g
Description: The pain threshold of normal animals of equal weight/age=155±2.1 g 2. Mechanical Hyperalgesia in Rats with Diabetes Induced by Streptozotocin
Male CD rats weighing 240-300 g on arrival were used.
Diabetic syndrome was induced by a single intraperitoneal (i.p.) injection of 80 mg/kg of streptozotocin dissolved in sterile physiological solution [Courteix C, Eschalier A, Lavarenne J. Streptozotocin-induced diabetic rats: behavioural evidence for a model of chronic pain. Pain, 1993; 53: 81-88; Bannon A W, Decker M W, Kim Dj, Campbell J E, Arneric S P. ABT-594, a novel cholinergic channel modulator, is efficacious in nerve ligation and diabetic neuropathy models of neuropathic pain. Brain Res. 1998; 801: 158-63].
After at least three weeks following the injection of streptozotocin, rats were selected having a level of glycaemia ≧300 mg/dl and having a response threshold to a mechanical nociceptive stimulus ≦120 g. The glycaemia levels were measured by means of a reflectometer using reactive strips impregnated with glucose oxidase. The pain threshold was measured using an analgesiometer. By applying a gradual increase in pressure on the dorsal zone of the rat's left hind foot, the instrument makes it possible to record the nocifensive response, expressed in grams, corresponding to the moment when the animal retracts its foot.
At 2 h following the treatment, the pain threshold measured in control animals was compared with that measured in animals treated with the product under examination (dose 10^−5 mol/kg).
The control animals were treated with the same vehicle (water) used for administering the products under examination.

melting point | Compound | Pain threshold (g) 1 h after treatment [1] [g] | Pain threshold (g) 2 h after treatment [2] [g]
 | CC(C)n1nc(C(=O)NCC2CCN(CCc3ccc(N)cc3)CC2)c2ccccc21.Cl.Cl [AF3R294, N((1-(2-(4-aminophenyl)ethyl)-4-piperidinyl)methyl)-1-(1-methylethyl)-1H-indazole-3-carboxamide dihydrochloride] | 194 ± 22.4 | 198 ± 18.6
 | Cc1ccc2c(c1)c(C(=O)NCC1CCN(CCc3ccc(O)cc3)CC1)nn2C(C)C.Cl [AF3R296, N((1-(2-(4-hydroxyphenyl)ethyl)-4-piperidinyl)methyl)-5-methyl-1-(1-methylethyl)-1H-indazole-3-carboxamide hydrochloride] | 151 ± 10.7 | 154 ± 8.7
 | Cl.O=C(NCC1CCN(CCc2ccc([N+](=O)[O-])cc2)CC1)c1n[nH]c2ccccc12 [AF3R298, N((1-(2-(4-nitrophenyl)ethyl)-4-piperidinyl)methyl)-1H-indazole-3-carboxamide hydrochloride] | 174 ± 9.8 | 170 ± 10.2
 | Cl.Cl.Nc1ccc(CCN2CCC(CNC(=O)c3n[nH]c4ccccc34)CC2)cc1 [AF3R302, N((1-(2-(4-aminophenyl)ethyl)-4-piperidinyl)methyl)-1H-indazole-3-carboxamide dihydrochloride] | 160 ± 10.2 | 164 ± 10.2
 | CC(C)n1nc(C(=O)NCC2CCN(CCc3ccc([N+](=O)[O-])cc3)CC2)c2ccccc21.O=C(O)C(=O)O [AF3R306, N((1-(2-(4-nitrophenyl)ethyl)-4-piperidinyl)methyl)-1-(1-methylethyl)-1H-indazole-3-carboxamide oxalate] | 186 ± 11.0 | 184 ± 13.8
137 to 139 °C (dec.) | COc1ccc(CCN2CCC(C(=O)Nc3nn(C)c4ccccc34)CC2)cc1.Cl [AF3R328, N-(1-methyl-1H-indazol-3-yl)-1-(2-(4-methoxyphenyl)ethyl)piperidine-4-carboxamide hydrochloride] | 150 ± 8.7 | 158 ± 6.2
 | Cl.Cn1nc(NC(=O)C2CCN(CCc3ccc(O)cc3)CC2)c2ccccc21 [AF3R330] | 161 ± 10.5 | 171 ± 9.6
235 to 237 °C | Cl.Cn1nc(NC(=O)C2CCN(CCc3ccccc3)CC2)c2ccccc21 [AF3R334, N-(1-methyl-1H-indazol-3-yl)-1-(2-phenylethyl)piperidine-4-carboxamide hydrochloride] | 170 ± 11.0 | 184 ± 10.5
